What was measured:
[1] = test system: MM32 indicator strain (LuxS−, LuxN−) of V. harveyi; test: MM32 bioluminescence assay; type: cell-based, Vibrio harveyi; conditions: various doses, 6-hour incubation
Experimental: The MM32 indicator strain (LuxS−, LuxN−) of V. harveyi was incubated with various doses of AI-2 and the bioluminescence signal measured at various time points during a 6-hour incubation.
Exogenous synthetic autoinducer-2 was added at the outset of the assay at a final concentration of 25 μg/ml. QXP-048 was added at the outset of the assay at a final concentration of 25 μg/ml. […] Exogeneous synthetic autoinducer-2 was added at the outset of the assay to a final concentration of 25 μg/ml. QXP-048 was added at the outset of the assay at a final concentration of 25 μg/ml.
The invention provides a luxN− and luxS− strain of V. harveyi, designated MM32, for identifying inhibitors of the quorum-sensing pathway. […] Further, since MM32 cannot produce AI-2, addition of exogenous AI-2 or its analogs allows rapid identification of inhibitors of AI-2.

[2] = test system: SdiA; test: Effect of autoinducer on SdiA regulated gene expression (rck::MudJ fusion, β-galactosidase); type: cell-based; conditions: AI-2 from E. coli or S. typhimurium, 0.4 M NaCl osmotic shock fluids at 10% (v/v)
From the text: It was possible that the AI-2 autoinducer that we have been characterizing in S. typhimurium and E. coli acted through SdiA. […] In E. coli, we assayed an ftsQ1p2p-lacZ reporter, and in S. typhimurium we assayed an rck::MudJ fusion in both an sdiA^+ and sdiA^− background. We tested the effects of addition of LB, 0.4 M NaCl, 0.4 M NaCl osmotic shock fluids containing AI-2 activity from S. typhimurium LT2, E. coli O157, and 0.4 M NaCl osmotic shock fluid from E. coli DH5α.
For ftsQ regulation in E. coli, the plasmids pMS207 and pMS209 were transformed into E. coli strain MC4100 (Silhavy et al., 1984, supra), and the transformants were grown overnight in LB containing 100 mg/L ampicillin at 30° C. with aeration. For rck regulation, S. typhimurium strains BA1105 (rck::MudJ) and BA1305 (rck::MudJ sdiA) were grown overnight in LB containing 100 mg/L kanamycin at 30° C. with aeration. The overnight cultures were diluted 20-fold into fresh medium and grown for an additional 4.5 h. At this time, each culture was divided into five identical aliquots and 10% (v/v) of one of the following was added to each aliquot: LB, 0.4M NaCl, 0.4M osmotic shock fluids from S. typhimurium LT2, E. coli O157 or E. coli strain DH5α (negative control). The osmotic shock fluids were prepared as described above, following pre-growth of the S. typhimurium LT2 and E. coli in LB containing 0.5% glucose for 6 h. […]

[3] = test system: Pseudomonas aeruginosa (ATCC 27853); test: Microtiter crystal violet biofilm formation assay; type: cell-based; conditions: AB media with glucose; pH-dependent
Experimental: (§1) Biofilm formation was measured using a microtiter-based assay. Free-swimming (planktonic) bacteria were cultured in AB or LB media supplemented with glucose in 96 well microtiter dishes. Biofilms typically formed along the walls of the wells at the interface of the liquid and air phase. At the end of the incubation, aliquots of a crystal violet solution (stock 0.1%) were added to the wells to stain both the adherent and the non-adherent cells. The wells were then washed with deionized water to remove non-adherent cells, and the bound crystal violet solubilized with 200 microliters of water. Absorbance reading at 600 nm (A600) were used to quantitate the amount of crystal violet dye that had adhered to the biofilms. When indicated, synthetic AI-2 was added to the wells at the beginning of the cultures.
The effects of AI-2 on biofilm formation were also evaluated in Pseudomonas aeruginosa (ATCC 27853)(FIG. 27). Biofilm formation by this organism is of particular interest because of the association of Pseudomonas aeruginosa biofilms with decreased lung capacity in subjects with cystic fibrosis.

[4] = Characterization of AI-2 activity: acid, base and heat stability; type: physicochemical
[5] = test system: V. harveyi strains MM32, BB120, BB170; test: Microtiter crystal violet biofilm formation assay; type: cell-based, Vibrio harveyi
Experimental: as §1
Various amounts of synthetic AI-2 were added to the initial free-swimming bacterial cultures in LB media supplemented with glucose, and biofilm formation measured at the end of the incubation.

CC1=C(O)C(=O)CO1 [AI-2, 4-hydroxy-5-methyl-2h-furan-3-one]
bioluminescence signal [1]: induction of bioluminescence
change in β-galactosidase production [2]: No change
biofilm formation [3]: dose-dependent increase in the level of biofilm formation
stability of activity to acid [4]: acid-stable
stability of activity to base [4]: base-labile
temperature of heating withstood by the activity ([4]; but not 100° C.): about 80 °C
biofilm formation ([5]; MM32 strain, low doses, LB media with glucose): block biofilm formation
biofilm formation ([5]; higher concentrations, all V. harveyi strains tested): stimulated biofilm formation
biofilm formation ([5]; indicator strain BB170, low doses, LB media with glucose): increases the extent of biofilm that forms
biofilm production after addition to the medium ([5]; null mutant (AI-1−/AI-2−) V. harveyi): allows (AI-1−/AI-2−) V. harveyi to produce biofilm
biofilm formation ([5]; wild-type strain BB120, low doses, LB media with glucose): increases the extent of biofilm that forms

From patent US7666619B2, “Compounds and methods for regulating bacterial growth and pathogenesis” (Princeton University, priority 2000, dated 2010)
